From patent US20140120083A1, “TREATMENT OF CANCERS USING PI3 KINASE ISOFORM MODULATORS” (INFINITY PHARMACEUTICALS, INC., priority 2012, published 2014)

Experiments:
Type in all cases: biochemical
[1] = molecular target: T1, PI3K γ (Homo sapiens, UniProt P48736); test: In vitro IC50, PI3K γ
T1 construct: purchased Sigma
From the text: (§1) An exemplary system is PI 3-Kinase (human) HTRF™ Assay from Upstate.

[2] = molecular target: PI3K δ (Homo sapiens, UniProt O00329); test: In vitro IC50, PI3K δ; design: purchased Upstate
From the text: as §1

[3] = molecular target: T2, PI3K α (Homo sapiens, UniProt P42336); test: In vitro IC50, PI3K α
T2 construct: purchased Upstate
From the text: as §1

PI3K δ, sequence (O00329 whole entry): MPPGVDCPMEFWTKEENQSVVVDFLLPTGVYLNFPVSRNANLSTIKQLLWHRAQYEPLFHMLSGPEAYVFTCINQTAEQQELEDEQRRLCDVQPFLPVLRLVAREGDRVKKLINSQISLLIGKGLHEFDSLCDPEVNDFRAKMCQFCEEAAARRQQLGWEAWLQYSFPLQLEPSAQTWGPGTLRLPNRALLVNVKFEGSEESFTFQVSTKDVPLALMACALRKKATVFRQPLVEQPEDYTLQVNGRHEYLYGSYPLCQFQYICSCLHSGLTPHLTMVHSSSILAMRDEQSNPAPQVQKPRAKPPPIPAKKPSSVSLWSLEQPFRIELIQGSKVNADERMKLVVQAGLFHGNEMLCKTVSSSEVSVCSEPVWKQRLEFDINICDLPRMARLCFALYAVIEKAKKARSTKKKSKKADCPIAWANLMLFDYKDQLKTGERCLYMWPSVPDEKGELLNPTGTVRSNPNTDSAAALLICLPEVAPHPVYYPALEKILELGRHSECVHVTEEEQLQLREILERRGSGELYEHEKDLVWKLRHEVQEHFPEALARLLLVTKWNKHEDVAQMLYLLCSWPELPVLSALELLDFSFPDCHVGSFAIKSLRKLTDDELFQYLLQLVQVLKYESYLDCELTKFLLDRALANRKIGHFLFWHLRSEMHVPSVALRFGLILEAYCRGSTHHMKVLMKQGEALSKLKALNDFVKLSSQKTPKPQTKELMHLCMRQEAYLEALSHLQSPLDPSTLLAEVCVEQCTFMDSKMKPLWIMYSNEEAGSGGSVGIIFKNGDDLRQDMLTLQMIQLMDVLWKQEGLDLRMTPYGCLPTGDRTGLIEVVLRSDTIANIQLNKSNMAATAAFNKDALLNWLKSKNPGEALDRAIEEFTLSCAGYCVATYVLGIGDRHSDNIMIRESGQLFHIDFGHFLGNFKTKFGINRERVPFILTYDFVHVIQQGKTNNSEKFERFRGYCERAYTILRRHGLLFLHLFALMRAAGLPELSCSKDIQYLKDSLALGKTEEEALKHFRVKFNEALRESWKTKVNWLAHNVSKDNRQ
PI3K δ, sequence (P27986 whole entry partner): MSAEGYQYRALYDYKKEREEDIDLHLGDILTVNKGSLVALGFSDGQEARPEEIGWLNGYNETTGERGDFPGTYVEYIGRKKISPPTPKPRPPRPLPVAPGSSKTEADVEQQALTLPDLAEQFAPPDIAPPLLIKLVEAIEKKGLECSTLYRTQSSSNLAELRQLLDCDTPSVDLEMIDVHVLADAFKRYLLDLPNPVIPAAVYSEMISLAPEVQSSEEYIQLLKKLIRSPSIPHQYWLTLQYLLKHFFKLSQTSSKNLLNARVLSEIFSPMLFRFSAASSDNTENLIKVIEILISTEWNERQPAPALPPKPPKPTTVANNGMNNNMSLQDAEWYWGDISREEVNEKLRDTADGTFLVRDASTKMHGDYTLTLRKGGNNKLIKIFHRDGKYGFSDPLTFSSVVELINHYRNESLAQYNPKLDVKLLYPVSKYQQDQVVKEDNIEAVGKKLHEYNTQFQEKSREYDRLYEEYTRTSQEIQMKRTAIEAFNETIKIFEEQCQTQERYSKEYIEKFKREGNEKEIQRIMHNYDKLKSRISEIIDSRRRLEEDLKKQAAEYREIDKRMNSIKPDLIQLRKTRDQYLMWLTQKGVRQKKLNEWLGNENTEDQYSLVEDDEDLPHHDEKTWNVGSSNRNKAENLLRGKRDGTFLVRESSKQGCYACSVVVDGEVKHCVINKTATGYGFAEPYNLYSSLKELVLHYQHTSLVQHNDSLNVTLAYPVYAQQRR
T1 sequence (P48736 whole entry): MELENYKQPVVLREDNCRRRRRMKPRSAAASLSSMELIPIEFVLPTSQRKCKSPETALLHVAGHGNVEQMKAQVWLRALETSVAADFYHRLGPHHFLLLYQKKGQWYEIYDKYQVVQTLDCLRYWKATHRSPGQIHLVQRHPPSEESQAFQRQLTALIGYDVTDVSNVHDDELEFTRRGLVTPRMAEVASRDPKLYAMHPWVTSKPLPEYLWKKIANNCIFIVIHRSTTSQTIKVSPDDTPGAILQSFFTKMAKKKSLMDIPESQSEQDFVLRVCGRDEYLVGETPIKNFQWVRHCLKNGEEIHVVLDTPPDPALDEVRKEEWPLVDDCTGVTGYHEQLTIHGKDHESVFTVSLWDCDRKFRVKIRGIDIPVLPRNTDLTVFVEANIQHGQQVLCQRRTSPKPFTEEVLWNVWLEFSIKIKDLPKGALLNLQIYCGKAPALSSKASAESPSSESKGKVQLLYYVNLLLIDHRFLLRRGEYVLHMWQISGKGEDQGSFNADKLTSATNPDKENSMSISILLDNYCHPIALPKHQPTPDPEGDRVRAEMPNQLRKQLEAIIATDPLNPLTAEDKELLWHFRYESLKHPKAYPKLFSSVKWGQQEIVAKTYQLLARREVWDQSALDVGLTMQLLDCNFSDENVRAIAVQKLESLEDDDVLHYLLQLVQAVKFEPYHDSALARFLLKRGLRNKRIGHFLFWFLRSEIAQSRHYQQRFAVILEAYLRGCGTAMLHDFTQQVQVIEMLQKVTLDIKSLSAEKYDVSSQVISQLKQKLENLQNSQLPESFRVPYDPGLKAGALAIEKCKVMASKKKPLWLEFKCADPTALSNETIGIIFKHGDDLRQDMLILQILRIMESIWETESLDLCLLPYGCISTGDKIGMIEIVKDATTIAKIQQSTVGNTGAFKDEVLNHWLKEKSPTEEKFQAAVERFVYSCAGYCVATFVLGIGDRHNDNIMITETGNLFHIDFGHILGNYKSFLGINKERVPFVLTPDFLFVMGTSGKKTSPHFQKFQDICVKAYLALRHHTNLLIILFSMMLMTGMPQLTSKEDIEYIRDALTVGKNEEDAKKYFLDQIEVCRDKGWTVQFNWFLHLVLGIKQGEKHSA
T2 sequence (P42336 whole entry): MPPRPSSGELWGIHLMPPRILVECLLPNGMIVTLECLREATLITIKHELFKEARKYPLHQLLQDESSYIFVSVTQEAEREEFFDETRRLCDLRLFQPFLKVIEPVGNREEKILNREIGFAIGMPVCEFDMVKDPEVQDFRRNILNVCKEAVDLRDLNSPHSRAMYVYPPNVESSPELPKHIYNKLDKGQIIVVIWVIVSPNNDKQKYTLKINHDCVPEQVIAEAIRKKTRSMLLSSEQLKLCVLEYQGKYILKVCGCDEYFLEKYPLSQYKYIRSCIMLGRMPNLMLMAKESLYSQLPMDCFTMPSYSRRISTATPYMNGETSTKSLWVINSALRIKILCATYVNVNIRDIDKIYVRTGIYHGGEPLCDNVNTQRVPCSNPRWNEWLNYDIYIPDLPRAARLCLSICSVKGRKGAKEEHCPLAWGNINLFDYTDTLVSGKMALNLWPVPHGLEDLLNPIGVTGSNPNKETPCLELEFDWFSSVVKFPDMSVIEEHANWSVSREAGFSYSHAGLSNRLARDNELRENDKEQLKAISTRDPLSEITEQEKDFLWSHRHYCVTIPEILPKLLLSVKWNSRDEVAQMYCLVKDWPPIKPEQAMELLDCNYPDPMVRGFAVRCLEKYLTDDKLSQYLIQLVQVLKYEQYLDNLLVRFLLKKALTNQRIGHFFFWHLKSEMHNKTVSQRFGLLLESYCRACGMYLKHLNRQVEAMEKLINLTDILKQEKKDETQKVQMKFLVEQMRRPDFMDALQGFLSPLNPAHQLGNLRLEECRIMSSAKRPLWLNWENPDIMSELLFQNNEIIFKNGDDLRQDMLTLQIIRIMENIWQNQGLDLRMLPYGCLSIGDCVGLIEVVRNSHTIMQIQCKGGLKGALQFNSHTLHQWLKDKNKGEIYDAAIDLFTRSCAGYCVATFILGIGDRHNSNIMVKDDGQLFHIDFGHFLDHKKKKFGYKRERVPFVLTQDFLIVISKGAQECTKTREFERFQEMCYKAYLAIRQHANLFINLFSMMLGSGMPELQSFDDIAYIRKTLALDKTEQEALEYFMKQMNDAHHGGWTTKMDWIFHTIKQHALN
T2 sequence (P27986 whole entry partner): as the sequence (P27986 whole entry partner) above

Structure (SMILES) | IC50 [1] | IC50 [2] | IC50 [3]
COCc1nn(Cc2cc3cccc(C)c3c(=O)n2-c2ccccc2C)c2ncnc(N)c12 [Compound 314] | > 10000 nM | > 10000 nM | > 10000 nM
Cc1cccc2cc(Cn3nc(C#CC4CC4)c4c(N)ncnc43)n(-c3ccccc3F)c(=O)c12 [Compound 4] | > 10000 nM | < 1000 nM | –
Cc1ccccc1-n1c(Cn2nc(C(F)F)c3c(N)ncnc32)cc2cccc(C)c2c1=O [Compound 306] | < 100 nM | < 100 nM | –
Cc1ccccc1-n1c(Cn2nc(C#C[C@@H](C)O)c3c(N)ncnc32)cc2ccccc2c1=O [Compound 32] | – | < 1000 nM | > 10000 nM
Cc1cccc2cc(C(C)Nc3ncnc4[nH]cnc34)n(CCN3CCCC3)c(=O)c12 (stereo not shown) [Compound 233] | > 10000 nM | < 100 nM | –
Cc1ccccc1-n1c(Cn2nc(-c3ccc(Cl)cc3)c3c(N)ncnc32)cc2cccc(C)c2c1=O [Compound 49] | < 1000 nM | < 1000 nM | > 10000 nM
Cc1cccnc1-n1c(Cn2nc(I)c3c(N)ncnc32)cc2ccccc2c1=O [Compound 92] | < 10000 nM | < 10000 nM | –
CCn1c(Cn2nc(-c3cccc(O)c3)c3c(N)ncnc32)cc2cccc(C)c2c1=O [Compound 126] | – | < 100 nM | –
Cc1cccc2cc([C@H](C)Nc3ncnc4[nH]cnc34)n(C(C)C)c(=O)c12 [Compound 230] | < 100 nM | < 100 nM | –
CNC(=O)c1cccc(-c2nn(Cc3cc4cccc(C)c4c(=O)n3-c3ccccc3C)c3ncnc(N)c23)c1 [Compound 120] | – | < 10000 nM | –
Cc1cccc2cc(C(C)Nc3ncnc4[nH]cnc34)n(-c3cccc(F)c3)c(=O)c12 (stereo not shown) [Compound 229] | < 1000 nM | < 100 nM | –
Cc1ccccc1-n1c(Cn2nc(-c3ccc4cc[nH]c4c3)c3c(N)ncnc32)cc2cccc(C)c2c1=O [Compound 50] | < 100 nM | < 100 nM | > 10000 nM
Cc1cccc2cc(Cn3nc(-c4ccc5nc(N)[nH]c5c4)c4c(N)ncnc43)n(-c3ccccc3)c(=O)c12 [Compound 302] | < 100 nM | < 100 nM | –
Cc1ccccc1-n1c(Cn2nc(Br)c3c(N)ncnc32)cc2cccc(C)c2c1=O [Compound 19] | < 100 nM | < 100 nM | > 10000 nM
Cc1cccc2cc([C@H](C)Nc3nc(F)nc4[nH]cnc34)n(-c3ccccc3)c(=O)c12 [Compound 245] | < 100 nM | < 100 nM | < 10000 nM
Cc1ccccc1-n1c(Cn2nc(-c3ccc(O)c(F)c3)c3c(N)ncnc32)cc2cccc(C)c2c1=O [Compound 30] | < 100 nM | < 100 nM | > 10000 nM
Cc1cccc2cc([C@H](C)Nc3ncnc4[nH]cnc34)n(-c3ccccc3)c(=O)c12 [Compound 196] | < 100 nM | < 100 nM | –
Cc1ccccc1-n1c(Cn2nc(Cl)c3c(N)ncnc32)cc2cccc(C)c2c1=O [Compound 20] | < 1000 nM | < 100 nM | > 10000 nM
Cc1ccccc1-n1c(Cn2nc(CO)c3c(N)ncnc32)cc2cccc(C)c2c1=O [Compound 313] | < 10000 nM | < 1000 nM | > 10000 nM
COc1ccc(-c2nn(Cc3cc4cccc(C)c4c(=O)n3-c3ccccc3F)c3ncnc(N)c23)cc1OC [Compound 47] | < 1000 nM | < 1000 nM | > 10000 nM
Cc1cccc2cc(Cn3nc(-c4cc(O)cc(F)c4)c4c(N)ncnc43)n(C3CCOCC3)c(=O)c12 [Compound 128] | – | < 100 nM | –
Cc1ccccc1-n1c(Cn2nc(-c3cc(O)cc(F)c3)c3c(N)ncnc32)cc2ccccc2c1=O [Compound 33] | < 100 nM | < 100 nM | > 10000 nM

Structure (SMILES) | IC50 [1] | IC50 [2] | IC50 [3]
Cc1cccnc1-n1c(Cn2nc(Br)c3c(N)ncnc32)cc2cccc(C)c2c1=O [Compound 17] | < 10000 nM | < 1000 nM | > 10000 nM
CC(C)n1c(Cn2nc(I)c3c(N)ncnc32)cc2cccc(F)c2c1=O [Compound 117] | – | < 10000 nM | –
Nc1ncnc2c1c(-c1cc(O)cc(F)c1)nn2Cc1cc2cccc(F)c2c(=O)n1-c1ccccc1F [Compound 144] | – | < 100 nM | –
Nc1ncnc2c1c(-c1cccc(O)c1)nn2Cc1cc2cccc(Cl)c2c(=O)n1C1CC1 [Compound 141] | – | < 100 nM | –
Cc1ccccc1-n1c(Cn2nc(I)c3c(N)ncnc32)cc2ccccc2c1=O [Compound 31] | < 100 nM | < 1000 nM | > 10000 nM
Cc1cccc2cc(Cn3nc(I)c4c(N)ncnc43)n(-c3ccccc3F)c(=O)c12 [Compound 2] | < 1000 nM | < 100 nM | –
CNc1ncc(Cl)c(N[C@@H](C)c2cc3cccc(C)c3c(=O)n2-c2ccccc2)n1 [Compound 250] | < 1000 nM | < 1000 nM | > 10000 nM
Cc1cccc2cc([C@H](C)Nc3c(C#N)cnc4ccccc34)n(-c3ccccc3)c(=O)c12 [Compound 246] | < 10000 nM | < 10000 nM | > 10000 nM
Cc1cccc2cc([C@H](C)Nc3ncnc4[nH]ncc34)n(-c3ccccc3)c(=O)c12 [Compound 258] | < 10000 nM | < 1000 nM | > 10000 nM
CC(Nc1ncnc2[nH]cnc12)c1cc2ccccc2c(=O)n1C1CCN(C)CC1 (stereo not shown) [Compound 225] | – | < 1000 nM | –
Cc1cccnc1-n1c(Cn2nc(-c3cc(O)cc(F)c3)c3c(N)ncnc32)cc2cccc(C)c2c1=O [Compound 16] | < 100 nM | < 100 nM | > 10000 nM
Cc1cccc2cc([C@H](C)NC(=O)c3cnn4ccccc34)n(-c3ccccc3)c(=O)c12 [Compound 241] | < 10000 nM | > 10000 nM | > 10000 nM
Cc1cccc2cc(Cn3nc(C(N)=O)c4c(N)ncnc43)n(-c3ccccc3)c(=O)c12 [Compound 307] | < 10000 nM | < 1000 nM | –
Cc1cccc2cc(C(C)Nc3ncnc4[nH]cnc34)n(C3CCCC3)c(=O)c12 (stereo not shown) [Compound 231] | < 100 nM | < 100 nM | –
CC(=O)c1nn(Cc2cc3cccc(C)c3c(=O)n2-c2ccccc2)c2ncnc(N)c12 [Compound 319] | < 10000 nM | < 1000 nM | > 10000 nM
Cc1cccc2cc(Cn3nc(-c4cc(O)cc(F)c4)c4c(N)ncnc43)n(C)c(=O)c12 [Compound 125] | – | < 100 nM | –
Cc1cccc2cc(C(C)Nc3ncnc4[nH]cnc34)n(C3CCOCC3)c(=O)c12 (stereo not shown) [Compound 234] | < 1000 nM | < 100 nM | –
Cc1cccc2cc(C(C)Nc3ncnc4[nH]cnc34)n(-c3ccccc3F)c(=O)c12 (stereo not shown) [Compound 203] | – | – | < 10000 nM
CNC(=O)c1nn(Cc2cc3cccc(C)c3c(=O)n2-c2ccccc2)c2ncnc(N)c12 [Compound 309] | < 10000 nM | < 1000 nM | > 10000 nM
C=Cc1nn(Cc2cc3cccc(C)c3c(=O)n2-c2ccccc2)c2ncnc(N)c12 [Compound 301] | < 1000 nM | < 100 nM | –
Cc1cccc2cc(Cn3nc(-c4ccc5nc(N)oc5c4)c4c(N)ncnc43)n(-c3ccccc3)c(=O)c12 [Compound 236] | < 1000 nM | < 1000 nM | –
Cc1nc2c(N[C@@H](C)c3cc4cccc(C)c4c(=O)n3-c3ccccc3)ncnc2[nH]1 [Compound 242] | < 10000 nM | < 10000 nM | > 10000 nM

Structure (SMILES) | IC50 [1] | IC50 [2] | IC50 [3]
CC(C)n1c(Cn2nc(-c3cc(O)cc(F)c3)c3c(N)ncnc32)cc2cccc(F)c2c1=O [Compound 134] | – | < 100 nM | –
CNC(=O)c1nn(Cc2cc3cccc(C)c3c(=O)n2-c2ccccc2C)c2ncnc(N)c12 [Compound 305] | < 10000 nM | < 10000 nM | –
Cc1ccccc1-n1c(Cn2nc(-c3ccc(CN)cc3)c3c(N)ncnc32)cc2cccc(C)c2c1=O [Compound 118] | – | < 10000 nM | –
Cc1cccc2cc(Cn3nc(-c4ccc5nc(N)cn5c4)c4c(N)ncnc43)n(-c3ccccc3)c(=O)c12 [Compound 239] | < 10000 nM | < 1000 nM | > 10000 nM
CC(C)n1c(Cn2nc(-c3cc(O)cc(F)c3)c3c(N)ncnc32)cc2ccccc2c1=O [Compound 136] | – | < 100 nM | –
Cc1cccc2cc(C(C)Nc3ncnc4[nH]cnc34)n(CCN3CCOCC3)c(=O)c12 (stereo not shown) [Compound 232] | < 10000 nM | < 100 nM | –
Cc1ccccc1-n1c(Cn2nc(C(=O)O)c3c(N)ncnc32)cc2cccc(C)c2c1=O [Compound 297] | – | < 1000 nM | –
Cc1cccc2cc([C@@H](C)Nc3ncnc4[nH]cnc34)n(C3CC3)c(=O)c12 [Compound 199] | > 10000 nM | > 10000 nM | –
CC(C)n1c(Cn2nc(-c3cccc(O)c3)c3c(N)ncnc32)cc2cccc(Cl)c2c1=O [Compound 137] | – | < 100 nM | –
CC(C)n1c(Cn2nc(-c3cc(O)cc(F)c3)c3c(N)ncnc32)cc2cccc(Cl)c2c1=O [Compound 138] | – | < 100 nM | –
Nc1ncnc2c1c(I)nn2Cc1cc2cccc(F)c2c(=O)n1-c1ccccc1F [Compound 132] | – | < 10000 nM | –
Nc1ncnc2c1c(-c1cccc(O)c1)nn2Cc1cc2cccc(F)c2c(=O)n1-c1ccccc1F [Compound 143] | – | < 1000 nM | –
Nc1ncnc2c1c(I)nn2Cc1cc2cccc(Cl)c2c(=O)n1C1CC1 [Compound 139] | – | < 100 nM | –
Cc1cccc2cc([C@@H](C)Nc3ncnc4[nH]cnc34)n(-c3ccccc3)c(=O)c12 [Compound 195] | < 10000 nM | < 10000 nM | –
Cc1cccc2cc(Cn3nc(-c4cn[nH]c4)c4c(N)ncnc43)n(C3CCN(C)CC3)c(=O)c12 [Compound 226] | – | < 1000 nM | –
Cc1cccc2cc(Cn3nc(-c4cccc(O)c4)c4c(N)ncnc43)n(C)c(=O)c12 [Compound 124] | – | < 100 nM | –
CC(C)n1c(Cn2nc(-c3cccc(O)c3)c3c(N)ncnc32)cc2ccccc2c1=O [Compound 135] | – | < 100 nM | –
CC(C)n1c(Cn2nc(I)c3c(N)ncnc32)cc2ccccc2c1=O [Compound 129] | – | < 10000 nM | –
Cc1cccc2cc(Cn3cnc4c(N)ncnc43)n(-c3ccccc3F)c(=O)c12 [Compound 1] | > 10000 nM | < 10000 nM | –
CCc1nn(Cc2cc3cccc(C)c3c(=O)n2-c2ccccc2)c2ncnc(N)c12 [Compound 303] | < 10000 nM | < 100 nM | –
